Results: ChEMBL document CHEMBL5303573, “Mapping human microbiome drug metabolism by gut bacteria and their genes” (Nature, 2019)

Assay: The drug is tested on Collinsella aerofaciens strain: ATCC25986 for biotransformation. The drug concentrations were measured before and after a 12-h incubation by liquid-chromatography-coupled mass spectrometry (LC–MS)
Settings: 2 µM

Compound	Bacterial Biotransformation
Cc1ccc(-c2nc3ccc(C)cn3c2CC(=O)N(C)C)cc1 [ZOLPIDEM]	Compound NOT metabolized
N=C(N)NC(=O)Cc1c(Cl)cccc1Cl [GUANFACINE]	Compound NOT metabolized
NC(CO)(CO)CO.O=C(c1ccccc1)c1ccc2n1CCC2C(=O)O (stereo not drawn) [KETOROLAC TROMETHAMINE]	Compound NOT metabolized

Settings: bacteroides intestinalis, 12 h, 2 µM
Description: The drug is tested on Bacteroides intestinalis strain: DSM17393 for biotransformation. The drug concentrations were measured before and after a 12-h incubation by liquid-chromatography-coupled mass spectrometry (LC–MS)

Compound	Bacterial Biotransformation
Cc1ccc(-c2nc3ccc(C)cn3c2CC(=O)N(C)C)cc1 [ZOLPIDEM]	Compound NOT metabolized
N=C(N)NC(=O)Cc1c(Cl)cccc1Cl [GUANFACINE]	Compound NOT metabolized
NC(CO)(CO)CO.O=C(c1ccccc1)c1ccc2n1CCC2C(=O)O (stereo not drawn) [KETOROLAC TROMETHAMINE]	Compound NOT metabolized

Assay: The drug is tested on Clostridium asparagiforme strain: DSM15981 for biotransformation. The drug concentrations were measured before and after a 12-h incubation by liquid-chromatography-coupled mass spectrometry (LC–MS)
Format: ADME
Design: dose 2 uM, timepoint 0 vs 12 hours
Settings: enterocloster asparagiformis, 2 µM

Compound	Bacterial Biotransformation
Cc1ccc(-c2nc3ccc(C)cn3c2CC(=O)N(C)C)cc1 [ZOLPIDEM]	Compound NOT metabolized
N=C(N)NC(=O)Cc1c(Cl)cccc1Cl [GUANFACINE]	Compound NOT metabolized
NC(CO)(CO)CO.O=C(c1ccccc1)c1ccc2n1CCC2C(=O)O (stereo not drawn) [KETOROLAC TROMETHAMINE]	Compound NOT metabolized

Assay: The drug is tested on Parabacteroides merdae strain: ATCC43184 for biotransformation. The drug concentrations were measured before and after a 12-h incubation by liquid-chromatography-coupled mass spectrometry (LC–MS)
Settings: 2 µM

Compound	Bacterial Biotransformation
Cc1ccc(-c2nc3ccc(C)cn3c2CC(=O)N(C)C)cc1 [ZOLPIDEM]	Compound NOT metabolized
N=C(N)NC(=O)Cc1c(Cl)cccc1Cl [GUANFACINE]	Compound NOT metabolized

Assay: The drug is tested on Collinsella intestinalis strain: DSM13280 for biotransformation. The drug concentrations were measured before and after a 12-h incubation by liquid-chromatography-coupled mass spectrometry (LC–MS)
Settings: 2 µM

Compound	Bacterial Biotransformation
Cc1ccc(-c2nc3ccc(C)cn3c2CC(=O)N(C)C)cc1 [ZOLPIDEM]	Compound NOT metabolized
N=C(N)NC(=O)Cc1c(Cl)cccc1Cl [GUANFACINE]	Compound NOT metabolized

Settings: bacteroides eggerthii, 12 h, 2 µM
Description: The drug is tested on Bacteroides eggerthii strain: DSM20697 for biotransformation. The drug concentrations were measured before and after a 12-h incubation by liquid-chromatography-coupled mass spectrometry (LC–MS)

Compound	Bacterial Biotransformation
N=C(N)NC(=O)Cc1c(Cl)cccc1Cl [GUANFACINE]	Compound NOT metabolized
NC(CO)(CO)CO.O=C(c1ccccc1)c1ccc2n1CCC2C(=O)O (stereo not drawn) [KETOROLAC TROMETHAMINE]	Compound NOT metabolized

Assay: The drug is tested on Edwardsiella tarda strain: ATCC23685 for biotransformation. The drug concentrations were measured before and after a 12-h incubation by liquid-chromatography-coupled mass spectrometry (LC–MS)
Settings: 2 µM

Compound	Bacterial Biotransformation
Cc1ccc(-c2nc3ccc(C)cn3c2CC(=O)N(C)C)cc1 [ZOLPIDEM]	Compound NOT metabolized
N=C(N)NC(=O)Cc1c(Cl)cccc1Cl [GUANFACINE]	Compound NOT metabolized

Assay: The drug is tested on Bacteroides pectinophilus strain: ATCC43243 for biotransformation. The drug concentrations were measured before and after a 12-h incubation by liquid-chromatography-coupled mass spectrometry (LC–MS)
Settings: 2 µM

Compound	Bacterial Biotransformation
Cc1ccc(-c2nc3ccc(C)cn3c2CC(=O)N(C)C)cc1 [ZOLPIDEM]	Compound NOT metabolized
N=C(N)NC(=O)Cc1c(Cl)cccc1Cl [GUANFACINE]	Compound NOT metabolized
NC(CO)(CO)CO.O=C(c1ccccc1)c1ccc2n1CCC2C(=O)O (stereo not drawn) [KETOROLAC TROMETHAMINE]	Compound NOT metabolized

Assay: The drug is tested on Ruminococcus gnavus strain: ATCC29149 for biotransformation. The drug concentrations were measured before and after a 12-h incubation by liquid-chromatography-coupled mass spectrometry (LC–MS)
Settings: mediterraneibacter gnavus, 2 µM

Compound	Bacterial Biotransformation
Cc1ccc(-c2nc3ccc(C)cn3c2CC(=O)N(C)C)cc1 [ZOLPIDEM]	Compound NOT metabolized
N=C(N)NC(=O)Cc1c(Cl)cccc1Cl [GUANFACINE]	Compound NOT metabolized
NC(CO)(CO)CO.O=C(c1ccccc1)c1ccc2n1CCC2C(=O)O (stereo not drawn) [KETOROLAC TROMETHAMINE]	Compound metabolized

Assay: The drug is tested on Bacteroides dorei strain: DSM17855 for biotransformation. The drug concentrations were measured before and after a 12-h incubation by liquid-chromatography-coupled mass spectrometry (LC–MS)
Settings: phocaeicola dorei, 2 µM

Compound	Bacterial Biotransformation
N=C(N)NC(=O)Cc1c(Cl)cccc1Cl [GUANFACINE]	Compound NOT metabolized
NC(CO)(CO)CO.O=C(c1ccccc1)c1ccc2n1CCC2C(=O)O (stereo not drawn) [KETOROLAC TROMETHAMINE]	Compound metabolized

Settings: limosilactobacillus reuteri cf48-3a, 12 h, 2 µM
Description: The drug is tested on Lactobacillus reuteri CF48-3A strain: BEI HM-102 for biotransformation. The drug concentrations were measured before and after a 12-h incubation by liquid-chromatography-coupled mass spectrometry (LC–MS)

Compound	Bacterial Biotransformation
Cc1ccc(-c2nc3ccc(C)cn3c2CC(=O)N(C)C)cc1 [ZOLPIDEM]	Compound NOT metabolized
NC(CO)(CO)CO.O=C(c1ccccc1)c1ccc2n1CCC2C(=O)O (stereo not drawn) [KETOROLAC TROMETHAMINE]	Compound NOT metabolized

Assay: The drug is tested on Anaerococcus hydrogenalis strain: DSM7454 for biotransformation. The drug concentrations were measured before and after a 12-h incubation by liquid-chromatography-coupled mass spectrometry (LC–MS)
Settings: 2 µM

Compound	Bacterial Biotransformation
Cc1ccc(-c2nc3ccc(C)cn3c2CC(=O)N(C)C)cc1 [ZOLPIDEM]	Compound NOT metabolized
N=C(N)NC(=O)Cc1c(Cl)cccc1Cl [GUANFACINE]	Compound NOT metabolized
NC(CO)(CO)CO.O=C(c1ccccc1)c1ccc2n1CCC2C(=O)O (stereo not drawn) [KETOROLAC TROMETHAMINE]	Compound NOT metabolized

Assay: The drug is tested on Providencia stuartii strain: ATCC25827 for biotransformation. The drug concentrations were measured before and after a 12-h incubation by liquid-chromatography-coupled mass spectrometry (LC–MS)
Settings: 2 µM

Compound	Bacterial Biotransformation
Cc1ccc(-c2nc3ccc(C)cn3c2CC(=O)N(C)C)cc1 [ZOLPIDEM]	Compound NOT metabolized
N=C(N)NC(=O)Cc1c(Cl)cccc1Cl [GUANFACINE]	Compound NOT metabolized
NC(CO)(CO)CO.O=C(c1ccccc1)c1ccc2n1CCC2C(=O)O (stereo not drawn) [KETOROLAC TROMETHAMINE]	Compound NOT metabolized

Assay: The drug is tested on Bacteroides sp. WH2 strain: WH2 for biotransformation. The drug concentrations were measured before and after a 12-h incubation by liquid-chromatography-coupled mass spectrometry (LC–MS)
Settings: bacteroides sp. wh2, 12 h, 2 µM

Compound	Bacterial Biotransformation
Cc1ccc(-c2nc3ccc(C)cn3c2CC(=O)N(C)C)cc1 [ZOLPIDEM]	Compound NOT metabolized
N=C(N)NC(=O)Cc1c(Cl)cccc1Cl [GUANFACINE]	Compound NOT metabolized
NC(CO)(CO)CO.O=C(c1ccccc1)c1ccc2n1CCC2C(=O)O (stereo not drawn) [KETOROLAC TROMETHAMINE]	Compound NOT metabolized

Assay: The drug is tested on Bifidobacterium longum subsp. Infantis strain: CCUG52486 for biotransformation. The drug concentrations were measured before and after a 12-h incubation by liquid-chromatography-coupled mass spectrometry (LC–MS)
Settings: 2 µM

Compound	Bacterial Biotransformation
Cc1ccc(-c2nc3ccc(C)cn3c2CC(=O)N(C)C)cc1 [ZOLPIDEM]	Compound NOT metabolized
N=C(N)NC(=O)Cc1c(Cl)cccc1Cl [GUANFACINE]	Compound NOT metabolized
NC(CO)(CO)CO.O=C(c1ccccc1)c1ccc2n1CCC2C(=O)O (stereo not drawn) [KETOROLAC TROMETHAMINE]	Compound NOT metabolized

Assay: The drug is tested on Bacteroides fragilis strain: HMW610 for biotransformation. The drug concentrations were measured before and after a 12-h incubation by liquid-chromatography-coupled mass spectrometry (LC–MS)
Settings: 2 µM

Compound	Bacterial Biotransformation
Cc1ccc(-c2nc3ccc(C)cn3c2CC(=O)N(C)C)cc1 [ZOLPIDEM]	Compound NOT metabolized
N=C(N)NC(=O)Cc1c(Cl)cccc1Cl [GUANFACINE]	Compound NOT metabolized
NC(CO)(CO)CO.O=C(c1ccccc1)c1ccc2n1CCC2C(=O)O (stereo not drawn) [KETOROLAC TROMETHAMINE]	Compound metabolized

Settings: bacteroides stercoris, 12 h, 2 µM
Description: The drug is tested on Bacteroides stercoris strain: ATCC43183 for biotransformation. The drug concentrations were measured before and after a 12-h incubation by liquid-chromatography-coupled mass spectrometry (LC–MS)

Compound	Bacterial Biotransformation
Cc1ccc(-c2nc3ccc(C)cn3c2CC(=O)N(C)C)cc1 [ZOLPIDEM]	Compound NOT metabolized
N=C(N)NC(=O)Cc1c(Cl)cccc1Cl [GUANFACINE]	Compound NOT metabolized

Settings: enterocloster bolteae, 12 h, 2 µM
Description: The drug is tested on Clostridium bolteae strain: ATCCBAA-613 for biotransformation. The drug concentrations were measured before and after a 12-h incubation by liquid-chromatography-coupled mass spectrometry (LC–MS)

Compound	Bacterial Biotransformation
Cc1ccc(-c2nc3ccc(C)cn3c2CC(=O)N(C)C)cc1 [ZOLPIDEM]	Compound NOT metabolized
N=C(N)NC(=O)Cc1c(Cl)cccc1Cl [GUANFACINE]	Compound NOT metabolized
NC(CO)(CO)CO.O=C(c1ccccc1)c1ccc2n1CCC2C(=O)O (stereo not drawn) [KETOROLAC TROMETHAMINE]	Compound NOT metabolized

Settings: bacteroides thetaiotaomicron, 12 h, 2 µM
Description: The drug is tested on Bacteroides thetaiotaomicron strain: 7330 for biotransformation. The drug concentrations were measured before and after a 12-h incubation by liquid-chromatography-coupled mass spectrometry (LC–MS)

Compound	Bacterial Biotransformation
Cc1ccc(-c2nc3ccc(C)cn3c2CC(=O)N(C)C)cc1 [ZOLPIDEM]	Compound NOT metabolized
